Counter-ions that a name gives are not always drawn.
How the values were obtained:
MDA-MB-435 = assay: In vitro proliferation assay (MTT), MDA-MB-435; type: cell-based, human; settings: Homo sapiens, MDA-MB-435, MTT assay; value (SD, n) where given; read-out: MB-435 Breast (IC50 µM)
Experimental: (§1) The proliferation of tumor cells can be measured using a tetrazolium salt-based assay known as the MTT (3-[4,5-Dimethylthiazol-2-yl]-2,5-diphenyltetrazolium bromide) assay. […] For the assay, the cell lines are plated onto 96 well plates at 1000 to 2500 cells/well (depending on the properties of the individual cell lines), left to attach and recover overnight. […] After 3 days, the cells are incubated with MTT dye (3-[4,5-Dimethylthiazol-2-yl]-2,5-diphenyltetrazolium bromide, Sigma # M5655, 10 mg/ml in Hank's Buffered Saline) to estimate the amount of live cells remaining vs. concentration for the test compounds. […] The MTT and culture medium is then removed from the cultures and 200 µl of DMSO is added to solubilize the dye from the cell layer. The absorbance at 570 nm is determined for each culture using a Spectramax plate reader (Molecular Devices).
(§2) IC50s were determined from the raw data from either the MTT or SRB assays.
(§3) All of the cell lines were obtained from American Type Tissue Collection, with the ATCC accession number in parentheticals. MCF-7 and MDA-MB-231 cells were grown in improved minimum essential medium (Biofluids) without phenol red, supplemented with 5 % fetal bovine serum, 0.01 mg/ml gentamicin and 3 mM L-glutamine.

PC-3 = assay: In vitro proliferation assay (MTT), PC-3; type: cell-based, human; settings: Homo sapiens, PC-3, MTT assay; value (SD, n) where given; read-out: PC-3 Prostate (IC50 µM)
Experimental: as §1, §2, §3

cdk2/cyclin E = cdk2/cyclin E (Homo sapiens, UniProt P24941); assay: Cyclin-dependent kinase assay, cdk2/cyclin E; settings: CDK2 IC50, nM, GST-pRb substrate, 10 µM ATP
cdk4/cyclin D1 = cdk4/cyclin D1 (Homo sapiens, UniProt P11802); assay: Cyclin-dependent kinase assay, cdk4/cyclin D1; type: biochemical; settings: cyclin D1/cdk4; GST-pRb substrate, 10 µM ATP
cdk1/cyclin B = cdk1/cyclin B (Homo sapiens, UniProt P06493); assay: Cyclin-dependent kinase assay, cdk1/cyclin B; settings: CDK1 IC50, nM, Histone H1, 10 µM ATP
Sequence of cdk1/cyclin B (P06493 whole entry): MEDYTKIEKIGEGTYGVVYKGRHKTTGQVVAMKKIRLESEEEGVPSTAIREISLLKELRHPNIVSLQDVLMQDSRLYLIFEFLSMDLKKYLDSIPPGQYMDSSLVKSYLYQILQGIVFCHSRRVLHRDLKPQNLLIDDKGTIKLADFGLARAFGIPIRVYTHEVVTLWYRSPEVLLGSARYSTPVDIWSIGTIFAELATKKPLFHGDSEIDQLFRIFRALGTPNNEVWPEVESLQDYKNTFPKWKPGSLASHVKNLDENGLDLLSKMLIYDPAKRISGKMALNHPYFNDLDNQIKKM
Sequence of cdk1/cyclin B (P14635 whole entry partner): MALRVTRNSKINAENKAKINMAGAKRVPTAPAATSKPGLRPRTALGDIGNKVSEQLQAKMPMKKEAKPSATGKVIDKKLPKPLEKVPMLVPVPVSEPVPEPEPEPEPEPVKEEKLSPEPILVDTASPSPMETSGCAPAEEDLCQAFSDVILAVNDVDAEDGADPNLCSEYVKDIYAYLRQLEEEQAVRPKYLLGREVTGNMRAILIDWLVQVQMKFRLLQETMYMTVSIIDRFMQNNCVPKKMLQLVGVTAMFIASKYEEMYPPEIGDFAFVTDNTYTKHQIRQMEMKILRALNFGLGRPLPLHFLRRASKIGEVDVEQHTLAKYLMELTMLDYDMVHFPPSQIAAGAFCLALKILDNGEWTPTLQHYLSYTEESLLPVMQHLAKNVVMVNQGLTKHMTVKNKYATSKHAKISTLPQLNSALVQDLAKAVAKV

Sequence of cdk4/cyclin D1 (P11802 whole entry): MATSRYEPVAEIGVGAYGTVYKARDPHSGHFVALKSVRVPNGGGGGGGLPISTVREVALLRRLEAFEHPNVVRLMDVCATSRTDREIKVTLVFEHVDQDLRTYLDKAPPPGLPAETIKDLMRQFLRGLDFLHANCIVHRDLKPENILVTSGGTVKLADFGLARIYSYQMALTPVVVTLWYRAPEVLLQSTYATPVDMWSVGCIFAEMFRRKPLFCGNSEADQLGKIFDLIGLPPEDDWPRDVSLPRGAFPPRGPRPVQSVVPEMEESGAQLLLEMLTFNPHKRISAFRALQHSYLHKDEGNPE
Sequence of cdk4/cyclin D1 (P24385 whole entry partner): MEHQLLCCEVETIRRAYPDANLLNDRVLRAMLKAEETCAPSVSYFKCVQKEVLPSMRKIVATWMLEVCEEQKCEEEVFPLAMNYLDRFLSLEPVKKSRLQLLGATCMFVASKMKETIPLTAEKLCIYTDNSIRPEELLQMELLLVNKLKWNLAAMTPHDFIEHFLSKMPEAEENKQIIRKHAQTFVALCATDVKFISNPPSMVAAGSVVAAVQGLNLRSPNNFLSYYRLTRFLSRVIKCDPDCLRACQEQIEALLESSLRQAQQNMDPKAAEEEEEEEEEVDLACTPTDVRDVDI

SMILES	IC50 (MDA-MB-435)	IC50 (PC-3)	IC50 (cdk2/cyclin E)	IC50 (cdk4/cyclin D1)	IC50 (cdk1/cyclin B)
NC1CCC(Nc2nc(NC3CCN(C(=O)C4CC4c4ccccc4)CC3)c3ncn(C4CCCC4)c3n2)CC1 (racemic) [compound 43, (±)-trans-1-{4-[2-(4-Amino-cyclohexylamino)-9-cyclopentyl-9H-purin-6-ylamino]-piperidin-1-y1}-1-(2-phenyl-cyclopropyl)-methanone dihydrochloride]	0.47 µM	0.59 µM	77 nM	–	–
N[C@H]1CC[C@H](Nc2nc(NC3CCN(C(=O)C(O)c4ccccc4)CC3)c3ncn(C4CCCC4)c3n2)CC1 (mixture of isomers) [compound 50, (±)-trans-1-{4-[2-(4-Amino-cyclohexylamino)-9-cyclopentyl-9H-purin-6-ylamino]-piperidin-1-yl}-2-hydroxy-2-phenyl-ethanone dihydrochloride]	1.67 µM	1.58 µM	44 nM	206 nM	43 nM
CCCCC(CC)C(=O)N1CCC(Nc2nc(N[C@H]3CC[C@H](N)CC3)nc3c2ncn3C2CCCC2)CC1 (mixture of isomers) [compound 57, (±)-trans-1-{4-[2-(4-Amino-cyclohexylamino)-9-cyclopentyl-9H-purin-6-ylamino]-piperidin-1-yl}-2-ethyl-hexan-1-one dihydrochloride]	0.96 µM	1.13 µM	480 nM	1300 nM	193 nM
CCCCC(CC)COC(=O)N1CCC(Nc2nc(N[C@H]3CC[C@H](N)CC3)nc3c2ncn3C2CCCC2)CC1 (mixture of isomers) [compound 97, (±)-trans-4-[2-(4-Amino-cyclohexylamino)-9-cyclopentyl-9H-purin-6-ylamino]-piperidine-1-carboxylic acid 2-ethyl-hexyl ester dihydrochloride]	1.52 µM	1.65 µM	–	–	–
N[C@H]1CC[C@H](Nc2nc(NC3CCN(C(=O)NC4CC4c4ccccc4)CC3)c3ncn(C4CCCC4)c3n2)CC1 (mixture of isomers) [compound 156, (±)-trans-4-[2-(4-Amino-cyclohexylamino)-9-cyclopentyl-9H-purin-6-ylamino]-piperidine-1-carboxylic acid (2-phenyl-cyclopropyl)-amide dihydrochloride]	0.28 µM	0.39 µM	79 nM	1620 nM	75 nM
CCCCc1ccc(C(=O)N2CCC(Nc3nc(N[C@H]4CC[C@H](N)CC4)nc4c3ncn4C3CCCC3)CC2)cc1 [compound 21, trans-1-{4-[2-(4-Amino-cyclohexylamino)-9-cyclopentyl-9H-puxin-6-ylamino]-piperidin-1-yl}-1-(4-butyl-phenyl)-methanone]	1.43 µM	1.45 µM	121 nM	–	–
CCCCCCCc1ccc(C(=O)N2CCC(Nc3nc(N[C@H]4CC[C@H](N)CC4)nc4c3ncn4C3CCCC3)CC2)cc1 [compound 24, trans-1-{4-[2-(4-Amino-cyclohexylamino)-9-cyclopentyl-9H-purin-6-ylamino]-piperidin-1-yl}-1-(4-heptyl-phenyl)-methanone]	2.18 µM	3.97 µM	–	–	–
N[C@H]1CC[C@H](Nc2nc(NC3CCN(C(=O)c4ccc([N+](=O)[O-])cc4)CC3)c3ncn(C4CCCC4)c3n2)CC1 [compound 27, trans-1-{4-[2-(4-Amino-cyclohexylamino)-9-cyclopentyl-9H-purin-6-ylamino]-piperidin-1-yl}-1-(4-nitro-phenyl)-methanone]	1.73 µM	2 µM	–	–	–
CC(C)=CC(=O)N1CCC(Nc2nc(N[C@H]3CC[C@H](N)CC3)nc3c2ncn3C2CCCC2)CC1 [compound 30, trans 1-{4-[2-(4-Amino-cyclohexylamino)-9-cyclopentyl-9#H!-purin-6-ylamino]-piperidin-1-yl}-3-methyl-but-2-en-1-one dihydrochloride]	0.75 µM	0.8 µM	77 nM	–	–
N[C@H]1CC[C@H](Nc2nc(NC3CCN(C(=O)/C=C/c4ccccc4)CC3)c3ncn(C4CCCC4)c3n2)CC1 [compound 62, trans-(E)-1-{4-[2-(4-Amino-cyclohexylamino)-9-cyclopentyl-9H-purin-6-ylamino]-piperidin-1-yl}-3-phenyl-propenone dihydrochloride]	–	–	66 nM	–	–
N[C@H]1CC[C@H](Nc2nc(NC3CCN(C(=O)OCc4ccccc4)CC3)c3ncn(C4CCCC4)c3n2)CC1 [compound 90, trans-4-[2-(4-Amino-cyclohexylamino)-9-cyclopentyl-9H-purin-6-ylamino]-piperidine-1-carboxylic acid benzyl ester dihydrochloride]	0.38 µM	0.58 µM	–	–	–
CC(C)COC(=O)N1CCC(Nc2nc(N[C@H]3CC[C@H](N)CC3)nc3c2ncn3C2CCCC2)CC1 [compound 91, trans-4-[2-(4-Amino-cyclohexylamino)-9-cyclopentyl-9H-purin-6-ylamino]-piperidine-1-carboxylic acid isobutyl ester dihydrochloride]	0.36 µM	0.37 µM	–	–	–
CCCOC(=O)N1CCC(Nc2nc(N[C@H]3CC[C@H](N)CC3)nc3c2ncn3C2CCCC2)CC1 [compound 96, trans-4-[2-(4-Amino-cyclohexylamino)-9-cyclopentyl-9H-purin-6-ylamino]-piperidine-1-carboxylic acid propyl ester dihydrochloride]	0.35 µM	0.35 µM	–	–	–
CCCCCCOC(=O)N1CCC(Nc2nc(N[C@H]3CC[C@H](N)CC3)nc3c2ncn3C2CCCC2)CC1 [compound 98, trans-4-[2-(4-Amino-cyclohexylamino)-9-cyclopentyl-9H-purin-6-ylamino]-piperidine-1-carboxylic acid hexyl ester dihydrochloride]	0.66 µM	0.82 µM	–	–	–
COc1cc(COC(=O)N2CCC(Nc3nc(N[C@H]4CC[C@H](N)CC4)nc4c3ncn4C3CCCC3)CC2)c([N+](=O)[O-])cc1OC [compound 101, trans-4-[2-(4-Amino-cyclohexylamino)-9-cyclopentyl-9H-purin-6-ylamino]-piperidine-1-carboxylic acid 4,5-dimethoxy-2-nitro-benzyl ester dihydrochloride]	0.24 µM	0.27 µM	80 nM	–	31 nM
CC(C)(C)COC(=O)N1CCC(Nc2nc(N[C@H]3CC[C@H](N)CC3)nc3c2ncn3C2CCCC2)CC1 [compound 103, trans-4-[2-(4-Amino-cyclohexylamino)-9-cyclopentyl-9H-purin-6-ylamino]-piperidine-1-carboxylic acid 2,2-dimethyl-propyl ester dihydrochloride]	0.51 µM	0.44 µM	–	–	–
N[C@H]1CC[C@H](Nc2nc(NC3CCN(S(=O)(=O)c4cccs4)CC3)c3ncn(C4CCCC4)c3n2)CC1 [compound 128, trans-N^2&-(4-Amino-cyclohexyl)-9-cyclopentyl-N^6-[1-(thiophene-2-sulfonyl)-piperidin-4-yl]-9H-purine-2,6-diamine dihydrochloride]	0.49 µM	0.57 µM	7 nM	–	–
Cc1cccc(NC(=O)N2CCC(Nc3nc(N[C@H]4CC[C@H](N)CC4)nc4c3ncn4C3CCCC3)CC2)c1 [compound 210, trans-4-[2-(4-Amino-cyclohexylamino)-9-cyclopentyl-9H-purin-6-ylamino]-piperidine-1-carboxylic acid (3-methyl-phenyl)-amide dihydrochloride]	–	–	28 nM	74 nM	20 nM

Reference: patent publication EP1377579B1 (Aventis Pharmaceuticals Inc., priority 2000, dated 2002)
